# Data from patent publication US20250230193A1, “CYCLIC COMPOUND HAVING SELECTIVE KRAS INHIBITORY EFFECT ON HRAS AND NRAS” (CHUGAI SEIYAKU KABUSHIKI KAISHA, priority 2022, published 2025).
# *1 amine or outer side, *2 acyl side, *3 side chain or, on linkers, in order; H or OH if unused. Where a SMILES comes first, the peptide text is derived from it. Bridges are numbered along the chain shown (N, C = ends). [ ]: non-standard residue; d: D form. The star is where a group is joined. hPhe(3-Cl-4-CF3) = N[C@@H](CCc1ccc(C(F)(F)F)c(Cl)c1)C(=O)O; X29 = Cc1ccc(C[C@@H](C(=O)[*:2])N(CC2CCCC2)[*:1])cc1; NEtPhe(4-Me) = CCN[C@@H](Cc1ccc(C)cc1)C(=O)O; X30 = CCN([C@H](C(=O)[*:2])C1CCCC1)[*:1]; NMeGly(cPent) = CN[C@H](C(=O)O)C1CCCC1; NMeD = CN[C@@H](CC(=O)O)C(=O)O; NMeL = CN[C@@H](CC(C)C)C(=O)O; Morpholide = C1CN(*)CCO1; NMeA = CN[C@@H](C)C(=O)O; Ac5c = NC1(C(=O)O)CCCC1; Aze = O=C(O)[C@@H]1CCN1; Sar = CNCC(=O)O
# Columns and labels:
# [1] = target: GDP-bound NRAS wild-type protein (Homo sapiens, UniProt P01111); experiment: Binding to NRAS by surface plasmon resonance (SPR), Single Cycle Kinetics
# [2] = target: GDP-bound HRAS wild-type protein (Homo sapiens, UniProt P01112); experiment: Binding to HRAS by surface plasmon resonance (SPR), Single Cycle Kinetics
# [3] = KD ratio, GDP-bound NRAS wild-type vs GDP-bound KRAS wild-type, SPR
# [4] = KD ratio, GDP-bound HRAS wild-type vs GDP-bound KRAS wild-type, SPR
# [5] = SPR, GDP-bound NRAS wild-type vs GDP-bound KRAS wild-type
# [6] = SPR, GDP-bound HRAS wild-type vs GDP-bound KRAS wild-type
# GDP-bound NRAS wild-type protein, sequence (P01111 whole entry): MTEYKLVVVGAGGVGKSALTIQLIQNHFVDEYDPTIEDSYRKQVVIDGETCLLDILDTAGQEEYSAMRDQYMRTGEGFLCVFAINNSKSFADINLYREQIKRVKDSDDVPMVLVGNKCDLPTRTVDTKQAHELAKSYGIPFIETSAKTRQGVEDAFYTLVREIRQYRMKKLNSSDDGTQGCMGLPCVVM
# GDP-bound HRAS wild-type protein, sequence (P01112 whole entry): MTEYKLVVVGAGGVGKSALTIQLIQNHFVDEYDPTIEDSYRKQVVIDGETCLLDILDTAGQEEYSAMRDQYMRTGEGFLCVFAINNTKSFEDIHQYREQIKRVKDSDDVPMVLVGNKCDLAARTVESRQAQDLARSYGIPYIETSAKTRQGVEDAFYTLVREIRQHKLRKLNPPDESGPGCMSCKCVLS
smiles,measurement,setting,value
CCCC[C@H]1C(=O)N[C@@H]([C@@H](C)CC)C(=O)N(C)CC(=O)N(C)[C@H]2C/C=C\CCN(C2=O)[C@@H](Cc2ccc(C(F)(F)F)cc2)C(=O)N(C)CC(=O)N[C@@H](CCc2ccc(C(F)(F)F)c(Cl)c2)C(=O)N2C[C@H](OCC)C[C@H]2C(=O)NC2(CC(C)(C)C2)C(=O)N(C)[C@@H](C2CCCC2)C(=O)N(C)[C@H](C(=O)N(C)C)CC(=O)N1C [PP1750],NRAS/KRAS (ratio of KD value for NRAS to KD value for KRAS),[1]; [3],A (a compound having 10 or more and less than 20 is denoted as A)
same,HRAS/KRAS (ratio of KD value for HRAS to KD value for KRAS),[2]; [4],B (a compound having 3 or more and less than 10 is denoted as B)
CCO[C@@H]1C[C@H]2C(=O)NC3(CCCC3)C(=O)N(C)[C@@H](C3CCCC3)C(=O)N(C)[C@H](C(=O)N3CCOCC3)CC(=O)N(C)[C@@H](CC(C)C)C(=O)N[C@@H]([C@@H](C)CC)C(=O)N(C)CC(=O)N(C)[C@H]3CCCCCN(C3=O)[C@@H](Cc3ccc(C(F)(F)F)cc3)C(=O)N(C)CC(=O)N[C@@H](CCc3cc(F)c(C(F)(F)F)c(F)c3)C(=O)N2C1 [PP0492],NRAS/KRAS (ratio of KD value with respect to GDP-bound NRAS wild-type protein to KD value with respect to KRAS),[1]; SPR,B (a compound having 3 or more and less than 10 is denoted as B)
same,HRAS/KRAS (ratio of KD value with respect to GDP-bound HRAS wild-type protein to KD value with respect to KRAS),[2]; SPR,B (a compound having 3 or more and less than 10 is denoted as B)
CCO[C@@H]1C[C@H]2C(=O)NC3(CCC3)C(=O)N(C)[C@@H](C3CCCC3)C(=O)N(C)[C@H](C(=O)N(C)C)CC(=O)N(C)[C@@H](CC)C(=O)N[C@@H]([C@@H](C)CC)C(=O)N(C)CC(=O)N(C)[C@H]3CC/C=C(/C)CN(C3=O)[C@@H](Cc3ccc(C(F)(F)F)cc3)C(=O)N(C)CC(=O)N[C@@H](CCc3cc(F)c(C(F)(F)F)c(F)c3)C(=O)N2C1 [PP1334],NRAS/KRAS (ratio of KD value for GDP-bound NRAS wild-type protein to KD value for KRAS),"[1]; SPR, KD ratio class",B (a compound having 3 or more and less than 10 is denoted as B)
same,HRAS/KRAS (ratio of KD value for GDP-bound HRAS wild-type protein to KD value for KRAS),"[2]; SPR, KD ratio class",B (a compound having 3 or more and less than 10 is denoted as B)
C=CCN1CC(=O)N(C)[C@H]2C/C=C\CCN(C2=O)[C@@H](Cc2ccc(C(F)(F)F)cc2)C(=O)N(C)CC(=O)N[C@@H](CCc2cc(F)c(C(F)(F)F)c(F)c2)C(=O)N2C[C@H](OCC)C[C@H]2C(=O)NC2(CC(C)(C)C2)C(=O)N(C)[C@@H](C2CCCC2)C(=O)N(C)[C@H](C(=O)N(C)C)CC(=O)N(C)[C@@H](CCC)C(=O)N[C@@H]([C@@H](C)CC)C1=O [PP2102],NRAS/KRAS (ratio of KD value with respect to NRAS to KD value with respect to KRAS),[1]; [5],A (a compound having 10 or more and less than 20 is denoted as A)
same,HRAS/KRAS (ratio of KD value with respect to HRAS to KD value with respect to KRAS),[2]; [6],A (a compound having 10 or more and less than 20 is denoted as A)
CC[C@H](C)[C@@H]1NC(=O)[C@H](C)N(C)C(=O)C[C@@H](C(=O)N2CCOCC2)N(C)C(=O)[C@H](C2CCCC2)N(C)C(=O)C2(CCCC2)NC(=O)[C@@H]2CCCN2C(=O)[C@H](CCc2ccc(C(F)(F)F)c(Cl)c2)NC(=O)CN(C)C(=O)[C@H](Cc2ccc(C)cc2)N(CC)C(=O)CN(C)C(=O)CN(C)C1=O [PP0031] ([NMeA]I[Sar][Sar][NEtPhe(4-Me)][Sar][hPhe(3-Cl-4-CF3)]P[Ac5c][NMeGly(cPent)][NMeD]-Morpholide; lactam N-11),NRAS/KRAS (ratio of KD for GDP-bound NRAS wild-type to KD for KRAS),[1]; SPR,B (a compound having 3 or more and less than 10 is denoted as B)
same,HRAS/KRAS (ratio of KD for GDP-bound HRAS wild-type to KD for KRAS),[2]; SPR,C (A compound having a KD ratio of 0.1 or more and less than 3 is denoted as C)
CCO[C@@H]1C[C@H]2C(=O)NC3(CCC3)C(=O)N(C)[C@@H](C3CCCC3)C(=O)N(C)[C@H](C(=O)N3CCOCC3)CC(=O)N(C)[C@@H](Cc3cscn3)C(=O)N[C@@H]([C@@H](C)CC)C(=O)N(C)CC(=O)N(C)[C@H]3CCCCCN(C3=O)[C@@H](Cc3ccc(C(F)(F)F)cc3)C(=O)N(C)CC(=O)N[C@@H](CCc3cc(F)c(C(F)(F)F)c(F)c3)C(=O)N2C1 [PP0855],NRAS/KRAS (ratio of KD value with respect to NRAS to KD value with respect to KRAS),[1]; [3],B (a compound having 3 or more and less than 10 is denoted as B)
same,HRAS/KRAS (ratio of KD value with respect to HRAS to KD value with respect to KRAS),[2]; [4],B (a compound having 3 or more and less than 10 is denoted as B)
CCC[C@H]1C(=O)N[C@@H]([C@@H](C)CC)C(=O)N(C2CC2)CC(=O)N(C)[C@H]2C/C=C\CCN(C2=O)[C@@H](Cc2ccc(C(F)F)cc2)C(=O)N(C)CC(=O)N[C@@H](CCc2cc(F)c(C(F)(F)F)c(F)c2)C(=O)N2C[C@H](OCC)C[C@H]2C(=O)NC2(CC(C)(C)C2)C(=O)N(C)[C@@H](C(CC)CC)C(=O)N(C)[C@H](C(=O)N(C)C)CC(=O)N1C [PP2527],NRAS/KRAS (ratio of KD value with respect to GDP-bound NRAS wild-type protein to KD value with respect to KRAS),[1]; class symbols,AA (a compound having 20 or more is denoted as AA)
same,HRAS/KRAS (ratio of KD value with respect to GDP-bound HRAS wild-type protein to KD value with respect to KRAS),[2]; class symbols,A (a compound having 10 or more and less than 20 is denoted as A)
CC[C@H](C)[C@@H]1NC(=O)[C@H](CC(C)C)N(C)C(=O)C[C@@H](C(=O)N2CCOCC2)N(C)C(=O)[C@H](C2CCCC2)N(C)C(=O)C2(CCCC2)NC(=O)[C@@H]2CCCN2C(=O)[C@H](CCc2ccc(C(F)(F)F)c(Cl)c2)NC(=O)CN(C)C(=O)[C@H](Cc2ccc(C)cc2)N(CC2CCCC2)C(=O)[C@@H]2CCN2C(=O)[C@H](C)N(C)C1=O [PP0084] ([NMeL]I[NMeA][Aze][X29][Sar][hPhe(3-Cl-4-CF3)]P[Ac5c][NMeGly(cPent)][NMeD]-Morpholide; lactam N-11),NRAS/KRAS (ratio of KD for GDP-bound NRAS wild-type to KD for KRAS),[1]; SPR,C (A compound having a KD ratio of 0.1 or more and less than 3 is denoted as C)
same,HRAS/KRAS (ratio of KD for GDP-bound HRAS wild-type to KD for KRAS),[2]; SPR,B (a compound having 3 or more and less than 10 is denoted as B)
CCOC[C@H]1C(=O)N[C@@H]([C@@H](C)CC)C(=O)N(C)CC(=O)N(C)[C@H]2C/C=C\CCN(C2=O)[C@@H](Cc2ccc(C)cc2)C(=O)N(C)CC(=O)N[C@@H](CCc2cc(F)c(C(F)(F)F)c(F)c2)C(=O)N2C[C@@H](C)C[C@H]2C(=O)NC2(CC(C)(C)C2)C(=O)N(C)[C@@H](C2CCCC2)C(=O)N(C)[C@H](C(=O)N(CC)CC)CC(=O)N1C [PP2407],NRAS/KRAS (ratio of KD value with respect to NRAS to KD value with respect to KRAS),[1]; [5],A (a compound having 10 or more and less than 20 is denoted as A)
same,HRAS/KRAS (ratio of KD value with respect to HRAS to KD value with respect to KRAS),[2]; [6],A (a compound having 10 or more and less than 20 is denoted as A)
"CCC[C@H]1C(=O)N[C@@H]([C@@H](C)CC)C(=O)N(C2CC2)CC(=O)N(C)[C@H]2C/C=C\CCN(C2=O)[C@@H](Cc2ccc(C(F)(F)F)cc2)C(=O)N(C)CC(=O)N[C@@H](CCc2ccc(C(F)(F)F)c(OC)c2)C(=O)N2C[C@H](OCC)C[C@H]2C(=O)N(C)C2(CCC2)C(=O)N(C)[C@@H](C2CCCC2)C(=O)N(C)[C@H](C(=O)N(C)C)CC(=O)N1C [PP2316, (2S,8S,12R,14S,20S,23S,27S,30S,36S,38Z)-20-cyclopentyl-32-cyclopropyl-12-ethoxy-8-[2-[3-methoxy-4-(trifluoromethyl)phenyl]ethyl]-N,N,4,16,19,22,26,35-octamethyl-30-[(1S)-1-methylpropyl]-3,6,9,15,18,21,25,28,31,34,42-undecaoxo-27-propyl-2-[[4-(trifluoromethyl)phenyl]methyl]spiro[1,4,7,10,16,19,22,26,29,32,35-undecazatricyclo[34.5.1.0^10,14]dotetracont-38-ene-17,1′-cyclobutane]-23-carboxamide]",NRAS/KRAS (ratio of KD value with respect to NRAS to KD value with respect to KRAS),[1]; [5],A (a compound having 10 or more and less than 20 is denoted as A)
same,HRAS/KRAS (ratio of KD value with respect to HRAS to KD value with respect to KRAS),[2]; [6],A (a compound having 10 or more and less than 20 is denoted as A)
CC[C@H](C)[C@@H]1NC(=O)[C@H](CC(C)C)N(C)C(=O)C[C@@H](C(=O)N2CCOCC2)N(C)C(=O)[C@H](C2CCCC2)N(C)C(=O)C2(CCCC2)NC(=O)[C@@H]2CC(=O)CN2C(=O)[C@H](CCc2cc(F)c(C(F)(F)F)c(F)c2)NC(=O)CN(C)C(=O)[C@H](Cc2ccc(C(F)(F)F)cc2)N2CCCCC[C@@H](C2=O)N(C)C(=O)CN(C)C1=O [PP0493],NRAS/KRAS (ratio of KD value with respect to GDP-bound NRAS wild-type protein to KD value with respect to KRAS),[1]; SPR,B (a compound having 3 or more and less than 10 is denoted as B)
same,HRAS/KRAS (ratio of KD value with respect to GDP-bound HRAS wild-type protein to KD value with respect to KRAS),[2]; SPR,B (a compound having 3 or more and less than 10 is denoted as B)
CCC[C@H]1C(=O)N[C@@H]([C@@H](C)CC)C(=O)N(C)CC(=O)N(C)[C@H]2C/C=C\CCN(C2=O)[C@@H](Cc2ccc(C(F)(F)F)cc2)C(=O)N(C)CC(=O)N[C@@H](CCc2ccc(Cl)c(Cl)c2)C(=O)N2CC[C@H]2C(=O)NC2(CC(C)(C)C2)C(=O)N(C)[C@@H](C(CC)CC)C(=O)N(C)[C@H](C(=O)N(C)C)CC(=O)N1C [PP2921],NRAS/KRAS (ratio of KD value with respect to GDP-bound NRAS wild-type protein to KD value with respect to KRAS),[1]; class symbols,AA (a compound having 20 or more is denoted as AA)
same,HRAS/KRAS (ratio of KD value with respect to GDP-bound HRAS wild-type protein to KD value with respect to KRAS),[2]; class symbols,A (a compound having 10 or more and less than 20 is denoted as A)
CC[C@H](C)[C@@H]1NC(=O)[C@H](CC(C)C)N(C)C(=O)C[C@@H](C(=O)N2CCOCC2)N(C)C(=O)[C@H](C2CCCC2)N(C)C(=O)C2(CCCC2)NC(=O)[C@@H]2CCCN2C(=O)[C@H](CCc2ccc(C(F)(F)F)c(Cl)c2)NC(=O)CN(C)C(=O)[C@H](C2CCCC2)N(CC)C(=O)[C@@H]2CCN2C(=O)[C@H](C)N(C)C1=O [PP0003] ([NMeL]I[NMeA][Aze][X30][Sar][hPhe(3-Cl-4-CF3)]P[Ac5c][NMeGly(cPent)][NMeD]-Morpholide; lactam N-11),NRAS/KRAS (ratio of KD for GDP-bound NRAS wild-type to KD for KRAS),[1]; SPR,C (A compound having a KD ratio of 0.1 or more and less than 3 is denoted as C)
same,HRAS/KRAS (ratio of KD for GDP-bound HRAS wild-type to KD for KRAS),[2]; SPR,C (A compound having a KD ratio of 0.1 or more and less than 3 is denoted as C)
